According to ChEMBL document CHEMBL3832761, “MMV Pathogen Box Bioactivity Data” (2017):
In brackets after ≈: the same amount, converted by molar mass.

Assays:
Plasmodium falciparum [1] = test: Antimalarial activity: Asexual Blood Stage Plasmodium falciparum 3D7 IC50 (uM); format: functional, organism-based
Plasmodium falciparum [2] = test: Antimalarial activity: Asexual Blood Stage Plasmodium falciparum Dd2 IC50 (uM); format: functional, organism-based
Plasmodium falciparum [3] = test: Antimalarial activity: Gametocytes Plasmodium falciparum NF54 Gametocytes Stage V IC50 (uM); format: functional, organism-based
HepG2 [4] = test: HepG2 inhibition at 10 uM (%) Cytotoxicity; format: functional; conditions: Homo sapiens
Plasmodium falciparum [5] = test: Antimalarial activity: Asexual Blood Stage Plasmodium falciparum W2 IC50 (uM); format: functional, organism-based
Plasmodium berghei [6] = test: Antimalarial activity: Liver Stage Plasmodium berghei sporozoite Luciferase assay: inhibition at 10 uM (%); format: functional
Plasmodium berghei [7] = test: Antimalarial activity: Liver Stage Plasmodium berghei sporozoite Luciferase assay IC50 (uM); format: functional, organism-based
Plasmodium falciparum [8] = test: Antimalarial activity: Gametocytes Plasmodium falciparum NF54 Gametocytes Stage V: inhibition at 10 uM (%); format: functional
HepG2 [9] = test: Cytotoxicity data HepG2 CC20 (uM); format: functional
HepG2 [10] = test: HepG2 CC50 (uM) Cytotoxicity; format: functional; conditions: Homo sapiens
[11] = system: Mycobacterium tuberculosis; test: AntiMycobacterium tuberculosis activity Non-Replicating form: Average MIC90 (uM); format: functional
[12] = system: Mycobacterium tuberculosis; test: AntiMycobacterium tuberculosis activity 1-week GAST/Fe MIC (uM); format: functional; conditions: 168 h
[13] = system: Mycobacterium tuberculosis; test: AntiMycobacterium tuberculosis activity 2-week GAST/Fe MIC (uM); format: functional; conditions: 336 h
[14] = system: Mycobacterium tuberculosis; test: AntiMycobacterium tuberculosis activity 1-week 7H9/ADC/Tw MIC (uM); format: functional; conditions: 168 h
[15] = system: Mycobacterium tuberculosis; test: AntiMycobacterium tuberculosis activity 2-week 7H9/ADC/Tw MIC (uM); format: functional; conditions: 336 h
[16] = system: Mycobacterium tuberculosis; test: AntiMycobacterium tuberculosis activity 2-week Alamar Blue 7H9/ADC/Tw MIC (uM); format: functional; conditions: 336 h
[17] = system: Mycobacterium tuberculosis; test: AntiMycobacterium tuberculosis activity 1-week 7H9/glucose/BSA/Tx MIC (uM); format: functional; conditions: 168 h
[18] = system: Mycobacterium tuberculosis; test: AntiMycobacterium tuberculosis activity 2-week 7H9/glucose/BSA/Tx MIC (uM); format: functional; conditions: 336 h
[19] = system: Mycobacterium tuberculosis; test: AntiMycobacterium tuberculosis activity 1-week 7H9/DPPC/cholesterol/BSA/Tx MIC (uM); format: functional; conditions: 168 h
[20] = system: Mycobacterium tuberculosis; test: AntiMycobacterium tuberculosis activity 2-week 7H9/DPPC/cholesterol/BSA/Tx MIC (uM); format: functional; conditions: 336 h
[21] = system: Mycobacterium tuberculosis; test: AntiMycobacterium tuberculosis activity 1-week 7H9/cholesterol/BSA/Tx MIC (uM); format: functional; conditions: 168 h
[22] = system: Mycobacterium tuberculosis; test: AntiMycobacterium tuberculosis activity 2-week Alamar Blue 7H9/cholesterol/BSA/Tx MIC (uM); format: functional; conditions: 336 h
[23] = system: Mycobacterium tuberculosis; test: (§1) AntiMycobacterium tuberculosis activity day 10 in 7H9/2.5mM butyrate/pH6/0.1mM nitrite MIC90 (uM); format: functional; conditions: 240 h
[24] = system: Mycobacterium tuberculosis; test: AntiMycobacterium tuberculosis activity day 21 in 7H9/2.5mM butyrate/pH6/0.1mM nitrite MIC90 (uM); format: functional; conditions: 504 h
[25] = system: Mycobacterium tuberculosis; test: as §1; format: functional; conditions: 240 h; remark: listed apart in the source
[26] = system: Mycobacterium tuberculosis; test: AntiMycobacterium tuberculosis activity day 21 MIC99 in 7H9/2.5mM butyrate/pH6/0.1mM nitrite MIC99 (uM); format: functional; conditions: 504 h
[27] = system: Mycobacterium tuberculosis; test: AntiMycobacterium tuberculosis activity Replicating form: Average MIC90 (uM); format: functional
HepG2 [28] = test: HepG2 galactose CC50 (uM) Cytotoxicity; format: functional
HepG2 [29] = test: HepG2 glucose CC50 (uM) Cytotoxicity; format: functional

CCCn1c(NC(=O)c2ccc3ccccc3n2)nc2ccccc21
IC50 (Plasmodium falciparum [1]): > 2000 nM | IC50 (Plasmodium falciparum [2]): > 2000 nM | IC50 (Plasmodium falciparum [3]): 560 nM | inhibition at 10 µM (HepG2 [4]): 24%

O=C(Nc1ccccc1)c1ccc(-c2cc3ccncc3cc2OC2CCNCC2)s1
IC50 (Plasmodium falciparum [1]): 570 nM | IC50 (Plasmodium falciparum [2]): 1240 nM | IC50 (Plasmodium falciparum [5]): 1560 nM | Inhibition (Plasmodium berghei [6]): 100% | IC50 (Plasmodium berghei [7]): 7370 nM | Inhibition (Plasmodium falciparum [8]): 96% | IC50 (Plasmodium falciparum [3]): 2280 nM | CC20 (HepG2 [9]): 3650 nM | CC50 (HepG2 [10]): > 7500 nM

Cc1cc(C)nc(-n2nc(C)cc2Nc2ccccc2)n1
IC50 (Plasmodium falciparum [1]): > 2000 nM | IC50 (Plasmodium falciparum [3]): 220 nM | inhibition at 10 µM (HepG2 [4]): 7%

CN(C(=O)c1cc2c(-c3cncnc3)cccc2[nH]1)c1ccccc1
IC50 (Plasmodium falciparum [1]): 720 nM | IC50 (Plasmodium falciparum [2]): 670 nM | IC50 (Plasmodium falciparum [5]): 790 nM | Inhibition (Plasmodium berghei [6]): 100% | IC50 (Plasmodium berghei [7]): 1020 nM | Inhibition (Plasmodium falciparum [8]): 81% | IC50 (Plasmodium falciparum [3]): 570 nM | CC20 (HepG2 [9]): 6040 nM | CC50 (HepG2 [10]): > 10000 nM

COc1ccc(-c2cnc3ccc(N4CCCC4)nn23)cc1OC
IC50 (Plasmodium falciparum [1]): 700 nM | IC50 (Plasmodium falciparum [2]): 670 nM | IC50 (Plasmodium falciparum [5]): 860 nM | Inhibition (Plasmodium berghei [6]): 100% | IC50 (Plasmodium berghei [7]): 630 nM | Inhibition (Plasmodium falciparum [8]): 91% | IC50 (Plasmodium falciparum [3]): 410 nM | CC20 (HepG2 [9]): 4950 nM | CC50 (HepG2 [10]): > 10000 nM

CNC(=O)CNc1nc(-c2ccccn2)nc2scc(-c3ccccc3)c12
IC50 (Plasmodium falciparum [1]): > 2000 nM | IC50 (Plasmodium falciparum [2]): > 2000 nM | IC50 (Plasmodium falciparum [3]): 840 nM | inhibition at 10 µM (HepG2 [4]): 4%

Nc1nccc2ccc(-c3ccc4nccn4c3)cc12
IC50 (Plasmodium falciparum [1]): 160 nM | IC50 (Plasmodium falciparum [2]): 260 nM | IC50 (Plasmodium falciparum [5]): 370 nM | Inhibition (Plasmodium berghei [6]): 56% | Inhibition (Plasmodium falciparum [8]): 95% | IC50 (Plasmodium falciparum [3]): 400 nM | CC20 (HepG2 [9]): 5410 nM | inhibition at 10 µM (HepG2 [4]): 50%

CCc1ccc(C(NCc2nc(N)nc(N(C)C)n2)C(C)C)cc1 (stereo unspecified)
IC50 (Plasmodium falciparum [1]): > 2000 nM | IC50 (Plasmodium falciparum [2]): > 2000 nM | IC50 (Plasmodium falciparum [3]): 80 nM

CCOC(=O)c1c(NC(=O)c2c(F)c(F)c(F)c(F)c2F)sc(C(N)=O)c1C
MIC90 [11]: 0.23 µM (≈ 0.0971 µg/mL) | MIC [12]: 0.07 µM (≈ 0.0296 µg/mL) | MIC [13]: 0.1 µM (≈ 0.0422 µg/mL) | MIC [14]: 0.1 µM (≈ 0.0422 µg/mL) | MIC [15]: 0.39 µM (≈ 0.165 µg/mL) | MIC [16]: 0.39 µM (≈ 0.165 µg/mL) | MIC [17]: 0.1 µM (≈ 0.0422 µg/mL) | MIC [18]: 0.39 µM (≈ 0.165 µg/mL) | MIC [19]: 0.05 µM (≈ 0.0211 µg/mL) | MIC [20]: 0.3 µM (≈ 0.127 µg/mL) | MIC [21]: 0.07 µM (≈ 0.0296 µg/mL) | MIC [22]: 0.39 µM (≈ 0.165 µg/mL) | MIC90 [23]: 0.78 µM (≈ 0.329 µg/mL) | MIC90 [24]: 6.25 µM (≈ 2.64 µg/mL) | MIC90 [25]: > 50 µM | MIC [26]: > 50 µM | MIC90 [27]: < 0.25 µM | CC50 (HepG2 [10]): 4200 nM | CC50 (HepG2 [28]): > 50000 nM | CC50 (HepG2 [28]; Homo sapiens, HepG2): 48800 nM | CC50 (HepG2 [29]): 23500 nM | CC50 (HepG2 [29]; Homo sapiens, HepG2): 31700 nM

c1ccc(-c2cc(N3CCCCC3)c3ccccc3n2)nc1
IC50 (Plasmodium falciparum [1]): > 2000 nM | IC50 (Plasmodium falciparum [2]): > 2000 nM | Inhibition (Plasmodium berghei [6]): 92% | IC50 (Plasmodium berghei [7]): 9700 nM | Inhibition (Plasmodium falciparum [8]): 93% | IC50 (Plasmodium falciparum [3]): 510 nM | CC20 (HepG2 [9]): 22900 nM | CC50 (HepG2 [10]): > 10000 nM

CCNC(=O)C(C)Nc1nc(-c2cccnc2)nc2sc(C)c(C)c12 (stereo unspecified)
IC50 (Plasmodium falciparum [1]): > 2000 nM | IC50 (Plasmodium falciparum [2]): > 2000 nM | IC50 (Plasmodium falciparum [3]): 610 nM | inhibition at 10 µM (HepG2 [4]): 0%

CCn1ncc2c(NC3CCOCC3)c(CNC(=O)c3ccnn3C)c(C)nc21
IC50 (Plasmodium falciparum [1]): 280 nM | IC50 (Plasmodium falciparum [2]): 390 nM | IC50 (Plasmodium falciparum [5]): 600 nM | Inhibition (Plasmodium berghei [6]): 100% | IC50 (Plasmodium berghei [7]): 1600 nM | Inhibition (Plasmodium falciparum [8]): 89% | IC50 (Plasmodium falciparum [3]): 240 nM | CC20 (HepG2 [9]): 24500 nM | CC50 (HepG2 [10]): > 10000 nM

O=C(Nc1ccc(N2CCNCC2)cc1)c1ccn2ncc(-c3cccc(Cl)c3)c2n1
IC50 (Plasmodium falciparum [1]): 780 nM | IC50 (Plasmodium falciparum [2]): 1190 nM | IC50 (Plasmodium falciparum [5]): 1400 nM | Inhibition (Plasmodium berghei [6]): 96% | IC50 (Plasmodium berghei [7]): > 10000 nM | Inhibition (Plasmodium falciparum [8]): 97% | IC50 (Plasmodium falciparum [3]): 620 nM | CC20 (HepG2 [9]): 760 nM | CC50 (HepG2 [10]): > 10000 nM
